pIC50: −log10 of the molar value.

Consider 3 molecules from patent US9975907B2, “Pyrimidinones as PI3K inhibitors” (Incyte Corporation, priority 2009, dated 2018).

For assay [1], the target named is PI3Kβ (Homo sapiens (Human), UniProt P42338). The experiment in a line: PI3K Enzyme Assay A2 ([γ-33P]ATP filter plate), PI3Kβ. The assay is classed as biochemical. Particulars: Assay A2, 1000 μM ATP. On the procedure: Materials: Lipid kinase substrate, phosphoinositol-4,5-bisphosphate (PIP2), was purchased from Echelon Biosciences (Salt Lake City, Utah). PI3K isoforms α, β, δ and γ were purchased from Millipore (Bedford, Mass.). ATP, MgCh, DTT, EDTA, MOPS and CHAPS were purchased from Sigma-Aldrich (St. Louis, Mo.). The kinase reaction was conducted in clear-bottom 96-well plate from Thermo Fisher Scientific in a final volume of 24 μL. Inhibitors were first diluted serially in DMSO and added to the plate wells before the addition of other reaction components. The final concentration of DMSO in the assay was 0.5%. The PI3K assays were carried out at room temperature in 20 mM MOPS, pH 6.7, 10 mM MgCl2, 5 mM DTT and CHAPS 0.03%. The reaction mixture was prepared containing 50 μM PIP2, kinase and varying concentration of inhibitors. Reactions were initiated by the addition of ATP containing 2.2 μCi [γ-^33P]ATP to a final concentration of 1000 μM. […] Reactions were incubated for 180 min and terminated by the addition of 100 μL of 1 M potassium phosphate pH 8.0, 30 mM EDTA quench buffer. A 100 μL aliquot of the reaction solution was then transferred to 96-well Millipore MultiScreen IP 0.45 μm PVDF filter plate (The filter plate was prewetted with 200 μL 100% ethanol, distilled water, and 1 M potassium phosphate pH 8.0, respectively). The filter plate was aspirated on a Millipore Manifold under vacuum and washed with 18×200 μL wash buffer containing 1 M potassium phosphate pH 8.0 and 1 mM ATP. After drying by aspiration and blotting, the plate was air dried in an incubator at 37° C. overnight. Packard TopCount adapter (Millipore) was then attached to the plate followed with addition of 120 μL Microscint 20 scintillation cocktail (Perkin Elmer) in each well. After the plate sealing, the radioactivity of the product was determined by scintillation counting on Topcount (Perkin-Elmer). IC50 determination was performed by fitting the curve of percent control activity versus the log of the inhibitor concentration using the GraphPad Prism 3.0 software. […] See Table 1 for data related to compounds of the invention.
PI3Kβ, sequence (P42338 whole entry, species assumed, canonical isoform): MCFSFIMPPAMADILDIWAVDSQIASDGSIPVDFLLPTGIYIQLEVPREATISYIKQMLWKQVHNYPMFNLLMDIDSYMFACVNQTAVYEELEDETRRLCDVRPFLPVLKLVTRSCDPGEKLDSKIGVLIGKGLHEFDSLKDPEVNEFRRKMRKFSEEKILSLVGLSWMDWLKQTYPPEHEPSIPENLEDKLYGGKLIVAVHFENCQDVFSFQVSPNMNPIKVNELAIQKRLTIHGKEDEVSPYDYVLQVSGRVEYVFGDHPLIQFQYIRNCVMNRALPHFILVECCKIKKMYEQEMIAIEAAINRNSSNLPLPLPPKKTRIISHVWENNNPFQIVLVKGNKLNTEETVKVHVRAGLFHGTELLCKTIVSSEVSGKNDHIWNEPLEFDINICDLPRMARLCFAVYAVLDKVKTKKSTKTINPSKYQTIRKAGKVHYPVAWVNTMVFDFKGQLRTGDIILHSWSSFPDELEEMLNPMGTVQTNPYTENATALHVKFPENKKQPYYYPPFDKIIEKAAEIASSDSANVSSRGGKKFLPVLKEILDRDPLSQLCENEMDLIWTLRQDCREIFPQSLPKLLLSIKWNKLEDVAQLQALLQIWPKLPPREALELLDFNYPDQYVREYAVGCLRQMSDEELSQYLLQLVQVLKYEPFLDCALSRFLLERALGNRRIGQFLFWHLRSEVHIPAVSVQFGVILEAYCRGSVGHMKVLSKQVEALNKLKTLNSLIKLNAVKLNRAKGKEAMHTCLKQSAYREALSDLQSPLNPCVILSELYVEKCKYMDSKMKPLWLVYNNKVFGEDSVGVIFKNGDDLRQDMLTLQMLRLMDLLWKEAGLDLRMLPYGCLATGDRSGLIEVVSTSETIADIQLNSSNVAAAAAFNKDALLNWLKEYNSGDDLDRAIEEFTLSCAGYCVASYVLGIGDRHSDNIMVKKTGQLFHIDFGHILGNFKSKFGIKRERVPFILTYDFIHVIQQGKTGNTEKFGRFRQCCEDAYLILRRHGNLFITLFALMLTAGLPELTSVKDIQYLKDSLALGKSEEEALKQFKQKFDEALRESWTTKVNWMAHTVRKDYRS
PI3Kβ, sequence (P27986 whole entry partner, species assumed, canonical isoform): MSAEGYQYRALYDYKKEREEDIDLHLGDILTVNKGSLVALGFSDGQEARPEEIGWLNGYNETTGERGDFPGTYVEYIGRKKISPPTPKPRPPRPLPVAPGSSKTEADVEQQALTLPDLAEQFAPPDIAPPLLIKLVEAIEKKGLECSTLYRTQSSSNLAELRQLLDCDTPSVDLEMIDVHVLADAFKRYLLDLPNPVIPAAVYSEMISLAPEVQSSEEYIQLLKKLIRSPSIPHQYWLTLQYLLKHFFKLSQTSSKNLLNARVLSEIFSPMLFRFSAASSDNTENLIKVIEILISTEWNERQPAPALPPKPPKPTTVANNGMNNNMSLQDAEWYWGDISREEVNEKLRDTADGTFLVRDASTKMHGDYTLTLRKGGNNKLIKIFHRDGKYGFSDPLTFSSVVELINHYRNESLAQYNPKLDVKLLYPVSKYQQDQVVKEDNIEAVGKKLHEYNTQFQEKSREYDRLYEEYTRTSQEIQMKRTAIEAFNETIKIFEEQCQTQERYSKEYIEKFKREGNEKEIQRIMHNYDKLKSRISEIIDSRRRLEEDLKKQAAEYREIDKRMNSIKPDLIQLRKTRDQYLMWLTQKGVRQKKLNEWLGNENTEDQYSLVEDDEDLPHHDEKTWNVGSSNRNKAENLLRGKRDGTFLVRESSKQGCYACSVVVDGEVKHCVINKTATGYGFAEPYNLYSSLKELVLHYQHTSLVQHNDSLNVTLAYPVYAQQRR

Assay [2] has as its target PI3Kα (Homo sapiens (Human), UniProt P42336). The experiment in a line: PI3K Enzyme Assay A2 ([γ-33P]ATP filter plate), PI3Kα. The class given is biochemical. Particulars: Assay A2, 1000 μM ATP. Here is the method:
Materials: Lipid kinase substrate, phosphoinositol-4,5-bisphosphate (PIP2), was purchased from Echelon Biosciences (Salt Lake City, Utah). PI3K isoforms α, β, δ and γ were purchased from Millipore (Bedford, Mass.). ATP, MgCh, DTT, EDTA, MOPS and CHAPS were purchased from Sigma-Aldrich (St. Louis, Mo.). The kinase reaction was conducted in clear-bottom 96-well plate from Thermo Fisher Scientific in a final volume of 24 μL. Inhibitors were first diluted serially in DMSO and added to the plate wells before the addition of other reaction components. The final concentration of DMSO in the assay was 0.5%. The PI3K assays were carried out at room temperature in 20 mM MOPS, pH 6.7, 10 mM MgCl2, 5 mM DTT and CHAPS 0.03%. The reaction mixture was prepared containing 50 μM PIP2, kinase and varying concentration of inhibitors. Reactions were initiated by the addition of ATP containing 2.2 μCi [γ-^33P]ATP to a final concentration of 1000 μM. […] Reactions were incubated for 180 min and terminated by the addition of 100 μL of 1 M potassium phosphate pH 8.0, 30 mM EDTA quench buffer. A 100 μL aliquot of the reaction solution was then transferred to 96-well Millipore MultiScreen IP 0.45 μm PVDF filter plate (The filter plate was prewetted with 200 μL 100% ethanol, distilled water, and 1 M potassium phosphate pH 8.0, respectively). The filter plate was aspirated on a Millipore Manifold under vacuum and washed with 18×200 μL wash buffer containing 1 M potassium phosphate pH 8.0 and 1 mM ATP. After drying by aspiration and blotting, the plate was air dried in an incubator at 37° C. overnight. Packard TopCount adapter (Millipore) was then attached to the plate followed with addition of 120 μL Microscint 20 scintillation cocktail (Perkin Elmer) in each well. After the plate sealing, the radioactivity of the product was determined by scintillation counting on Topcount (Perkin-Elmer). IC50 determination was performed by fitting the curve of percent control activity versus the log of the inhibitor concentration using the GraphPad Prism 3.0 software.

PI3Kα, sequence (P42336 whole entry, species assumed, canonical isoform): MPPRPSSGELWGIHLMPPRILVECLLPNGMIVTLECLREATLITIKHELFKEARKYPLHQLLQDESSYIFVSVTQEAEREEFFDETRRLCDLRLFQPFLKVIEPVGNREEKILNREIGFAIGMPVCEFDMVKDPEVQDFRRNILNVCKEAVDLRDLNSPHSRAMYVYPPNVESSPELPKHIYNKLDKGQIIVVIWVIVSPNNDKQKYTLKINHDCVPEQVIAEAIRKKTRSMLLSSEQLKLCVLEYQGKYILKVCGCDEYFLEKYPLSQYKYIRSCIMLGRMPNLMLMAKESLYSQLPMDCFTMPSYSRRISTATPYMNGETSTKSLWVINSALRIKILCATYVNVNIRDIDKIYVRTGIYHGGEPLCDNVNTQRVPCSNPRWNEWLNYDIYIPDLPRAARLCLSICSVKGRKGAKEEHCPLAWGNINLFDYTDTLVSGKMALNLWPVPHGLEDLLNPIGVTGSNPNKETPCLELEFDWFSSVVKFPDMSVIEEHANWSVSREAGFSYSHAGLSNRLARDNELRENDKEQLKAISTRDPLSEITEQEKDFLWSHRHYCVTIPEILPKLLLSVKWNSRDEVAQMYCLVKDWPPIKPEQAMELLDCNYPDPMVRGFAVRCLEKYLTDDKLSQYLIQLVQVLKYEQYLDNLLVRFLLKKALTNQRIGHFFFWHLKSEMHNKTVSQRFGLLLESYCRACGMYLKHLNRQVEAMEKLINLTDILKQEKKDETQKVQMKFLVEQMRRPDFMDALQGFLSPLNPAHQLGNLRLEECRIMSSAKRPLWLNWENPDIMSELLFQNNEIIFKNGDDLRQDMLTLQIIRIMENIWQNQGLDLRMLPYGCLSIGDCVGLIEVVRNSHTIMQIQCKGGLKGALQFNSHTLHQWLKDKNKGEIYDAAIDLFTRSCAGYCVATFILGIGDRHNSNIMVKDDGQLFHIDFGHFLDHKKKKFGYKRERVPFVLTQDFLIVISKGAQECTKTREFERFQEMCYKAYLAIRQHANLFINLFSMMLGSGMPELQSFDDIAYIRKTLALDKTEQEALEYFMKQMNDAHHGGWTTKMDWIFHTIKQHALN
PI3Kα, sequence (P27986 whole entry partner, species assumed, canonical isoform): as the sequence (P27986 whole entry partner, species assumed, canonical isoform) above

One may read the pIC50 as −log10 of the IC50, conventionally taken in molar units. Read a high pIC50 as a small IC50. For `Cc1csc2nc(C(C)Nc3nc(N)nc4[nH]cnc34)c(-c3ccccc3)c(=O)n12` (stereo not drawn) [Example 9, 7-{1-[(2-amino-9H-purin-6-yl)amino]ethyl}-3-methyl-6-phenyl-5H-[1,3]thiazolo[3,2-a]pyrimidin-5-one], the pIC50 in assay [1] and in assay [2] was less than 6.30 throughout.

As for `Cc1csc2nc(C(C)Nc3nc(N)nc4[nH]cnc34)c(-c3cccc(F)c3)c(=O)n12` (stereo not drawn) [Example 11, 7-{1-[(2-amino-9H-purin-6-yl)amino]ethyl}-6-(3-fluorophenyl)-3-methyl-5H-[1,3]thiazolo[3,2-a]pyrimidin-5-one], the pIC50 in assay [1] and in assay [2] was less than 6.30 in each case.

As for `Cc1csc2nc(C(C)Nc3nc(N)nc4[nH]cnc34)c(-c3cc(F)cc(F)c3)c(=O)n12` (stereo not drawn) [Example 13, 7-{1-[(2-amino-9H-purin-6-yl)amino]ethyl}-6-(3,5-difluorophenyl)-3-methyl-5H-[1,3]thiazolo[3,2-a]pyrimidin-5-one], the pIC50 in assay [1] and in assay [2] was less than 6.30 in each case.
